The results in this text go back to US6538107B1, “G protein coupled receptor protein production, and use thereof” (Takeda Chemical Industries, Ltd., priority 1994, dated 2003).

The subject of this test is oocytes injected with H2O. Description: Electrophysiological measurement in control Xenopus oocytes injected with H2O instead of pMAH2-17 cRNA. It counts as cell-based. Conditions: ATP stimulation, initial membrane potential −60 mV.

For the compound `Nc1ncnc2c1ncn2[C@@H]1O[C@H](COP(=O)(O)OP(=O)(O)OP(=O)(O)O)[C@@H](O)[C@H]1O` [ATP, Adenosine triphosphate], the “inward currents (current changes of the membrane) evoked by ATP” value was “such a current was not observed”.
